Reference: ChEMBL document CHEMBL1909046, “DrugMatrix in vitro pharmacology data”

Assays:
[1] = target: T1, Alpha-1B adrenergic receptor (Rattus norvegicus, UniProt P15823); test: DRUGMATRIX: Alpha-1B adrenergic receptor radioligand binding (ligand: prazosin); assay type: cell membranes, Wistar, Liver, Membrane; conditions: Not Active = under 50% inhibition at 10 µM
T1 sequence (P15823 whole entry): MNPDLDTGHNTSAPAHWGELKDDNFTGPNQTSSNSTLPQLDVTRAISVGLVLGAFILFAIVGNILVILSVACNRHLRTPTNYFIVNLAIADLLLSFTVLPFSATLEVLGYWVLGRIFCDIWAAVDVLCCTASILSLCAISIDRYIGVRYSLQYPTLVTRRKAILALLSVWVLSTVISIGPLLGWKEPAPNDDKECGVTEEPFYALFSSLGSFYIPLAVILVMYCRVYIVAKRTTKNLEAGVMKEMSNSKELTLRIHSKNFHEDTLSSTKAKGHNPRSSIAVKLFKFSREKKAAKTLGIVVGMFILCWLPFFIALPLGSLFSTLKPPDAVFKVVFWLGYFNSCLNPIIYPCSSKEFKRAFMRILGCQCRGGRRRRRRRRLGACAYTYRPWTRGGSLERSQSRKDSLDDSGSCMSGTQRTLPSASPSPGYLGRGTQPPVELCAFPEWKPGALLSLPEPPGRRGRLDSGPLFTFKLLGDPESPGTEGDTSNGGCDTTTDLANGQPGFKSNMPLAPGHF

[2] = target: Aldo-keto reductase family 1 member B1 (Rattus norvegicus, UniProt P07943); test: biochemical; assay type: tissue-based, Lens of camera-type eye;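 note: inhibition of aldose reductase enzyme activity, measured with DL-glyceraldehyde as the substrate; in other assays of this panel Not Active means under 50% inhibition at 10 µM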
[3] = target: T2, Cholecystokinin receptor type A (Homo sapiens, UniProt P32238); assay type: cell membranes, Membrane; conditions: 1321-n1; note: in other assays of this panel Not Active means under 50% inhibition at 10 µM
T2 sequence (P32238 whole entry): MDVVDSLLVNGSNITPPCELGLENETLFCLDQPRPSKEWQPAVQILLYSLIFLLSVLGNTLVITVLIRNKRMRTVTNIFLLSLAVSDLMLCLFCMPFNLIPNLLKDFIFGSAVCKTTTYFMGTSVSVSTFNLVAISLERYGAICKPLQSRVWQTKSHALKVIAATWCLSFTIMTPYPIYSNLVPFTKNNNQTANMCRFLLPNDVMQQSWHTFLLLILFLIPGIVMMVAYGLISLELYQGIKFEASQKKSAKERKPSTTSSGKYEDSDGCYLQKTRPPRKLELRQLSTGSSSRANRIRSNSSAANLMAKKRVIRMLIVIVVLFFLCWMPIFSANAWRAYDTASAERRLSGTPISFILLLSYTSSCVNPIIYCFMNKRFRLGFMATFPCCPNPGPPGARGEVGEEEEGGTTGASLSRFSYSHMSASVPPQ

[4] = DRUGMATRIX: Nicotinic Acetylcholine radioligand binding (ligand: [125I] Epibatidine); assay type: cell membranes, Membrane; conditions: imr-32; Not Active = under 50% inhibition at 10 µM
[5] = target: T3, Nitric oxide synthase, inducible (Mus musculus, UniProt P29477); parameters: species or system Escherichia coli;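 note: inhibition of iNOS enzyme activity measured with L-arginine as substrate; in other assays of this panel Not Active means under 50% inhibition at 10 µM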
T3 sequence (P29477 whole entry): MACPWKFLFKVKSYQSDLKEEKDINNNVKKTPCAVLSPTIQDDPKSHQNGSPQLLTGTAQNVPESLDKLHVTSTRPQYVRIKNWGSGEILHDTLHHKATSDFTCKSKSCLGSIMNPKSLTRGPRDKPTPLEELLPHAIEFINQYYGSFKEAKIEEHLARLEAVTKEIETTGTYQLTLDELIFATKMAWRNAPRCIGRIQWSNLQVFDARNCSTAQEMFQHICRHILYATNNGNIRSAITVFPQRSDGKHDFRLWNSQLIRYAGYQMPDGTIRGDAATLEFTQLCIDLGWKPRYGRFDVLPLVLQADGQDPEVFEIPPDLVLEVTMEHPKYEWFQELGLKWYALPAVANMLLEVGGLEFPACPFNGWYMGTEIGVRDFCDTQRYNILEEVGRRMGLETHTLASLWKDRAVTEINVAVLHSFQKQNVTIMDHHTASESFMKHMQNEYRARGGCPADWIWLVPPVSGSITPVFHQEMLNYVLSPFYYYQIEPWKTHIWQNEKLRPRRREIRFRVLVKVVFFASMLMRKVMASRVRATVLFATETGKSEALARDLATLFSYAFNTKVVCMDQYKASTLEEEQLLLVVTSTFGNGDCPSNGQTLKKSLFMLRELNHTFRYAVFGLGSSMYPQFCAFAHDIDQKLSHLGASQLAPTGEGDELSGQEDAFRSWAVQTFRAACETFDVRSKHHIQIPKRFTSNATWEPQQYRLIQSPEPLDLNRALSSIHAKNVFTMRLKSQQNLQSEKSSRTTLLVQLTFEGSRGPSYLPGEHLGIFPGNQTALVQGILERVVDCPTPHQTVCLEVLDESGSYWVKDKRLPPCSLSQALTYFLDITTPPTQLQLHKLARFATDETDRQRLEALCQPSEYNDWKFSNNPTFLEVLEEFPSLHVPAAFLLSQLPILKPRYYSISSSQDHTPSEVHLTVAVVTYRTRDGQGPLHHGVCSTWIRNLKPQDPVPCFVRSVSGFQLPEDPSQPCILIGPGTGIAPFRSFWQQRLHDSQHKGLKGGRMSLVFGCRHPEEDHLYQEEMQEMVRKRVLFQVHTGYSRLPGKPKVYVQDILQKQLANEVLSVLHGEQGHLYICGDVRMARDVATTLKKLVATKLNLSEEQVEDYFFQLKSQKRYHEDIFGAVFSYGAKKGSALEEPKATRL

[6] = DRUGMATRIX: Phosphodiesterase PDE3 enzyme inhibition (substrate: [3H]cAMP + cAMP); assay type: tissue-based, Homo sapiens; conditions: platelet, Not Active = under 50% inhibition at 10 µM
[7] = target: Epidermal growth factor receptor (Homo sapiens, UniProt P00533); test: DRUGMATRIX: Protein Tyrosine Kinase, EGF Receptor enzyme inhibition (substrate: Poly(Glu:Tyr)); assay type: cell-based, Insect cells; conditions: insect cells; Not Active = under 50% inhibition at 10 µM

| Compound | IC50 [1] | IC50 [2] | IC50 [3] | IC50 [4] | Ki [4] | IC50 [5] | IC50 [6] | Ki [6] | IC50 [7] | IC50 ([6]; read-out: IC50) | IC50 ([2]; read-out: IC50) | Ki [1] | Ki [2] | Ki [3] | Ki [5] | Ki [7] |
| --- | --- | --- | --- | --- | --- | --- | --- | --- | --- | --- | --- | --- | --- | --- | --- | --- |
| CC(C)(CO)C(O)C(=O)NCCCO (centres undefined) [PANTHENOL] | Not Active | Not Active | Not Active | Not Active | Not Active | Not Active | Not Active | Not Active | Not Active |  |  |  |  |  |  |  |
| COc1ccc(Cc2nccc3cc(OC)c(OC)cc23)cc1OC [PAPAVERINE] | Not Active | Not Active | Not Active | Not Active | Not Active | Not Active |  |  | Not Active | 665 nM |  |  |  |  |  |  |
| OCCN1CCN(CCCN2c3ccccc3Sc3ccc(Cl)cc32)CC1 [PERPHENAZINE] | Not Active | Not Active | Not Active | Not Active | Not Active | Not Active | Not Active | Not Active | Not Active |  |  |  |  |  |  |  |
| CCCCC1C(=O)N(c2ccccc2)N(c2ccccc2)C1=O [PHENYLBUTAZONE] | Not Active | Not Active | Not Active | Not Active | Not Active | Not Active | Not Active | Not Active | Not Active |  |  |  |  |  |  |  |
| Cc1cccc(Nc2cc(Cl)nc(SCC(=O)O)n2)c1C [PIRINIXIC ACID] | Not Active |  | Not Active | Not Active | Not Active | Not Active | Not Active | Not Active | Not Active |  | 2820 nM |  |  |  |  |  |
| CC[C@H](C)C(=O)O[C@H]1C[C@H](O)C=C2C=C[C@H](C)[C@H](CC[C@@H](O)C[C@@H](O)CC(=O)O)[C@H]21 [PRAVASTATIN] | Not Active | Not Active | Not Active | Not Active | Not Active | Not Active | Not Active | Not Active | Not Active |  |  |  |  |  |  |  |
| CC(C)(Sc1cc(C(C)(C)C)c(O)c(C(C)(C)C)c1)Sc1cc(C(C)(C)C)c(O)c(C(C)(C)C)c1 [PROBUCOL] | Not Active | Not Active | Not Active | Not Active | Not Active | Not Active | Not Active | Not Active | Not Active |  |  |  |  |  |  |  |
| COBALT(II) ACETYLACETONATE | Not Active | Not Active | Not Active | Not Active | Not Active | Not Active | Not Active | Not Active | Not Active |  |  | Not Active | Not Active | Not Active | Not Active | Not Active |
| INSULIN HUMAN | Not Active | Not Active | Not Active | Not Active | Not Active | Not Active | Not Active | Not Active | Not Active |  |  | Not Active | Not Active | Not Active | Not Active | Not Active |
| POLYVINYL ALCOHOL | Not Active | Not Active | Not Active | Not Active | Not Active | Not Active | Not Active | Not Active | Not Active |  |  | Not Active | Not Active | Not Active | Not Active | Not Active |
